Where “and” joins values, the source holds several entries; their conditions need not be identical. Identical values can stand only once.
Experiment: rat acute oral toxicity
Conditions: in vivo

SMILES	LD50
C=C(C)C(N)=O	1650 mg/kg
CCCOCC(C)OCC(C)O (centres undefined)	1500 mg/kg
CCCCCCCCCC(=O)O	3320 mg/kg
COP(=O)(OC)C(O)C(Cl)(Cl)Cl (centres undefined)	154 mg/kg
C1CC2OC2CC1C1CO1 (centres undefined)	2130 mg/kg
CCCCCCCCCC[N+](C)(C)CCCCCCCCCC	84 mg/kg
O=C1CCC(=O)O1	1510 mg/kg
CCC(=O)C(CC(C)N(C)C)(c1ccccc1)c1ccccc1 (centres undefined)	30 mg/kg
CCSC(=O)N(CC(C)C)CC(C)C	4000 mg/kg
Oc1nc2ccccc2[nH]1	1930 mg/kg
CC(O)CNCC(C)O (centres undefined)	4760 mg/kg
CCCCCCCCCCCCCC[N+](C)(C)CCCCCCCCCCCCCC	930 mg/kg
CC1(C)OC[C@@H]2O[C@@]3(C(=O)O)OC(C)(C)O[C@H]3[C@@H]2O1	18000 mg/kg
COP(=S)(OC)Oc1ccc(Sc2ccc(OP(=S)(OC)OC)cc2)cc1	444 mg/kg
CCC(C)=NO[Si](ON=C(C)CC)(ON=C(C)CC)ON=C(C)CC	2450 mg/kg
CI	76 mg/kg
C#CC(C)(C)O	1420 mg/kg
CC(C)C(Nc1ccc(C(F)(F)F)cc1Cl)C(=O)OC(C#N)c1cccc(Oc2ccccc2)c1 (centres undefined)	261 mg/kg
O=[N+]([O-])c1ccc(Cl)c(Cl)c1	625 mg/kg
CNC(=O)Oc1cccc2c1OC(C)(C)C2	5.15 mg/kg
CC1(C)CC(=O)CC(C)(C)N1	1330 mg/kg
O=C(O)CC(O)C(=O)O (centres undefined)	9300 mg/kg and 3200 mg/kg
CC(C)c1nn(C(=O)NC(C)(C)C)c(=O)n1N	1020 mg/kg

SMILES	LD50
CCCCCCCC/C=C\CCCCCCCCNCCCN	500 mg/kg
OCC#CCO	104 mg/kg
CN(C)C(CSC(N)=O)CSC(N)=O	340 mg/kg
CCCCCCCCC=CCCCCCCCCN(CCO)CCO	1260 mg/kg
C=CC(=O)OCC(O)COCCCCOCC(O)COC(=O)C=C (centres undefined)	200 mg/kg
CCN(C)C	594 mg/kg
CCC(C)c1cc([N+](=O)[O-])cc([N+](=O)[O-])c1OC(=O)C=C(C)C (centres undefined)	58 mg/kg
O=S(=O)(O)CCCS	3720 mg/kg
OCCOCCO	12600 mg/kg
O=C(O)/C=C/C(=O)O	9300 mg/kg
CCCCCO	2200 mg/kg
Nc1ccc(O)c([N+](=O)[O-])c1	1470 mg/kg
CS(=O)(=O)Cl	50 mg/kg
CC(C)CCCCCCO	2980 mg/kg
Nc1ccc(Cl)cc1	300 mg/kg
Cc1ccc(/N=C/N(C)/C=N/c2ccc(C)cc2C)c(C)c1	400 mg/kg
CCO	7230 mg/kg
CC1(C)[C@H](C(=O)O[C@H](C#N)c2cccc(Oc3ccccc3)c2)[C@@H]1C(Br)C(Br)(Br)Br (some centres undefined)	99 mg/kg
NC(=O)NCc1ccccc1	2700 mg/kg
Oc1ccccc1Cl	40 mg/kg
O=C(O)COc1ccc(Cl)cc1Cl	625 mg/kg and 552 mg/kg and 370 mg/kg
CCCCC(=O)O	1060 mg/kg
CON(C)C(=O)Nc1ccc(Cl)c(Cl)c1	1150 mg/kg

SMILES	LD50
ClC(Cl)(Cl)c1ccccc1	1590 mg/kg
Oc1ccc(O)cc1	302 mg/kg
CC1(C)CC(=O)CC(C)(C#N)C1 (centres undefined)	61.6 mg/kg
Clc1ccc(-c2ccc(Cl)c(Cl)c2Cl)c(Cl)c1Cl	1300 mg/kg
CC/C(C)=N/O[Si](C)(O/N=C(\C)CC)O/N=C(\C)CC	2450 mg/kg
BrC(Br)Br	933 mg/kg
COc1ccc(C(c2ccc(OC)cc2)C(Cl)(Cl)Cl)cc1	1860 mg/kg
O=C1C(Cl)=C(Cl)C(=O)C(Cl)=C1Cl	4000 mg/kg
ClC(Cl)Br	916 mg/kg
Cc1c(Cl)cccc1[N+](=O)[O-]	2320 mg/kg
C=CC#N	78 mg/kg
O=C(O)c1cc2ccccc2cc1O	809 mg/kg
O=S(=O)(O)OCCOc1ccc(Cl)cc1Cl	480 mg/kg
O=P(OCCCl)(OCCCl)OCCCl	466 mg/kg
CC(=O)O[Si](C)(OC(C)=O)OC(C)=O	1550 mg/kg
CCOCCOCCO	5570 mg/kg
C=CC[N+](C)(C)CC=C	2520 mg/kg
ClCc1ccccc1	440 mg/kg
CC(COC(=O)c1ccccc1)OC(=O)c1ccccc1 (centres undefined)	2660 mg/kg
CN(C)c1ccccc1	951 mg/kg
CC/C=C\C#N	198 mg/kg
Oc1cc(Cl)c(Cl)cc1Cl	820 mg/kg
N#Cc1c(Cl)c(Cl)c(Cl)c(C#N)c1Cl	242 mg/kg

SMILES	LD50
CCNC(=O)CSP(=S)(OC)OC	125 mg/kg
CC(=O)CC(C)=O	570 mg/kg
COc1ccc(OC)c([N+](=O)[O-])c1	2120 mg/kg
C=CC=O	11.1 mg/kg
CCOP(=S)(OCC)Oc1ccc(Cl)cc1Cl	172 mg/kg
Cc1ccc(Cl)cc1	2100 mg/kg
CC(CCl)OC(C)CCl (centres undefined)	240 mg/kg
Cc1ccccc1OCC1CO1 (centres undefined)	2800 mg/kg
Cn1sccc1=O	105 mg/kg
Cc1cccc([N+](=O)[O-])c1C	2110 mg/kg
CC(C)(C)c1ccc(CCOc2ncnc3ccccc23)cc1	134 mg/kg
CN(C)CC/C=C1\c2ccccc2Sc2ccc(Cl)cc21	200 mg/kg
CN(C)CCC=C1c2ccccc2CCc2ccccc21	280 mg/kg
C=CC1CC=CCC1 (centres undefined)	1600 mg/kg
CCCCOCCOCCO	5080 mg/kg
CCC(N)CO (centres undefined)	800 mg/kg
O=[N+]([O-])c1cc(Cl)ccc1Cl	1000 mg/kg
Cc1[nH]c(=O)n(C(C)(C)C)c(=O)c1Cl	1700 mg/kg
CCC[N+](CCC)(CCC)CCC	3300 mg/kg
CC1=CC(C)(C)CC(=O)C1	1500 mg/kg

Reference: the CATMoS acute toxicity set (Mansouri et al. 2021)
